Converted amounts (≈) assume the structure as drawn. “And” between values parts separate entries of the source, which are not always exact repeats. Equal entries are not always repeated.
Columns and labels:
[1] = system: PTZ-induced epileptiform brain discharges in zebrafish larvae; parameters: method as in PMID 34768849; conditions: pimpinellin; cited from earlier work
[2] = cited from earlier work
[3] = system: zebrafish larvae; experiment: Locomotor activity of zebrafish larvae without proconvulsant treatment; type: in vivo, Danio rerio
Protocol: (§1) 100 µL of embryo medium or 100 µL of a 40 mM PTZ solution was added to obtain a final concentration of 20 mM of PTZ in each well [30]. Larvae were habituated for 5 min in a dark chamber of an automated tracking device (ZebraBox system; Viewpoint, Lyon, France). Then, the locomotor activity without proconvulsant treatment was measured in the dark. The total locomotor activity was quantified using ZebraLab software (Viewpoint, Lyon, France) and was expressed in “actinteg”’ units, which is the sum of all pixel changes detected during the period defined for the experiment. After the evaluation of preincubated larvae movements, PTZ solution was added, and the locomotor behavior was measured for 30 min for each condition. All tracking experiments were performed at least in triplicate.

[4] = mammals; cited from earlier work
[5] = LC-MS/MS quantification of whole-body uptake in immersed zebrafish larvae
Protocol: After immersion larvae were plated in 1% BSA for 15 s and washed thoroughly by shaking to remove all compounds from the larvae surface. […] For quantification, six larvae were pooled before homogenization. Three experiments were carried out in independent days.
These were homogenized with the Ultrasonic Processor UP50H (Hielscher): 1 cycle—60% amplitude. The run consisted of two cycles of 15 s with a rest of 50 s in ice for each sample. […] To 100 µL of homogenate 200 µL of the internal standard (IS) Rolipram (Sigma Aldrich, Buchs, Switzerland) (20 ng/mL) for the positive MS experiment, and VPA d-6 (Sigma Aldrich, Buchs, Switzerland) (50 µg/mL) for the negative MS experiment were added. Samples were vortexed for 10 s and then centrifuged at 12,000 rpm for 10 min at 4 °C. After centrifugation, 150 µL of supernatant was transferred into LC-MS vials already containing 120 µL of MilliQ water. Then, 10 µL was injected into the LC-MS/MS system.
A hybrid triple quadrupole 4000 QTRAP mass spectrometer (AB Sciex Concord, ON, Canada) was used with a Shimadzu UFLC (Shimadzu Corporation, Kyoto, Japan) with a cooled auto-sampler. The sample temperature was maintained at 4 °C in the auto-sampler prior to analysis. The LC column was Synergi 4 µm Fusion-RP 80Å C18 50 × 2 mm, Phenomenex, maintained at 45 °C. The system was operated first in positive and after in negative mode with the same elution mobile phases and gradient method. Mobile phases were as follows: water with 0.1% formic acid (solvent A) and methanol with 0.1% formic acid (solvent B). […] The flow rate was 0.80 mL/min. Peaks were integrated, and the analyst software version 1.6.2 (AB Sciex Concord, ON, Canada) was used for quantification. […] Negative mode: Valproic acid m/z 143→143, (IS: Valproic Acid-d6 149→149).

[6] = treated humans; cited from earlier work
[7] = system: PTZ-induced seizure-like movements in zebrafish larvae; experiment: PTZ-induced seizure-like locomotor tracking in zebrafish larvae; type: in vivo, Danio rerio; conditions: for decrease of actinteg values of PTZ-treated larvae: 1 h pre-immersion; for decrease of actinteg values of PTZ-treated larvae / decrease of locomotor activity of PTZ-treated larvae: 20 mM PTZ, vs vehicle-PTZ group
Protocol: For immersion 6 days post-fertilization (dpf) and for all measurements, 7-dpf larvae were used. The zebrafish experiments described here were approved by the Local Ethics Committee in Lublin (license no: 109/2018).
All compounds were dissolved in dimethyl sulfoxide (DMSO) and diluted in an embryo medium to achieve a final DMSO concentration of 1% w/v. Embryo medium prepared with DMSO to a final concentration of 1% w/v served as vehicle control (VHC). PTZ (Sigma-Aldrich, Poznań, Poland) was dissolved at a concentration of 40 mM in the embryo medium. The control anticonvulsant agent used in this study was VPN (Sigma-Aldrich, Poznań, Poland).
as §1

[8] = system: PTZ-induced epileptiform brain discharges in zebrafish larvae; experiment: Local field potential (LFP) recordings, power spectral density (PSD) analysis, PTZ-induced seizure model; type: in vivo, Danio rerio; conditions: PTX 20 µM, 18 h immersion, mean PSD over the 1–50 Hz region, 20 mM PTZ
Protocol: Non-invasive local field potential (LFP) was recorded from the optic tectum of zebrafish as described before. Before the recording, the treated larvae were immersed for 15 min in 100 µL of VHC or 20 mM PTZ. After immersion, a larva was immobilized in 2% low melting agarose (Invitogen, Waltham, MA, USA) and the signal electrode (Hilgenberg, Germany) was placed on the surface of the head above the optic tectum. The differential signal between the recording electrode and the reference electrode was amplified 10,000 times by EXT-02F/2 extracellular amplifier (NPI Electronic, Tamm, Germany), band pass filtered at 3–300 Hz and digitized at 2 kHz via a PCI-6251 interface (National Instruments, Austin, Texas, USA) with WinEDR (John Dempster, University of Strathclyde, Glasgow, Scotland). A HumBug noise eliminator (Quest Scientific, Hofheim, Germany) was used to remove 50–60 Hz noise. The recordings and the quantification of the signal from epileptiform brain discharges by Welch’s power spectral density (PSD) analysis were performed as described before.

[9] = system: zebrafish larvae whole-body metabolites; experiment: Amino acid and neurotransmitter quantification (targeted metabolomics) in zebrafish larvae whole-body; type: in vivo, Danio rerio; conditions: PTX 20 μM, 18 h immersion
Protocol: For quantification, six larvae were pooled before homogenization. Three experiments were carried out in independent days.
The samples were prepared as described before. To 80 µL of the homogenate 320 µL of MeOH was added to precipitate proteins at a volume dilution […]. After centrifugation at max speed (20,000 rpm) at 4 °C for 10 min, 50 µL were diluted with 200 µL of 1:1 MeOH:1 mM EDTA in Water (Dil 1:4). Samples were centrifuged at max speed at 4 °C for 10 min, and 50 µL were taken into the LC-MS insert vials, 5 µL of the internal standard mix (ethanolamine_d4, dopamine_d4, methionine_d3, serine_d3, lysine_d4 glycine_d5, and acetylcholine_d4) was added to all vials.
The LC column used was Imtakt Intrada amino acid WAA34, 100 × 3 mm; 3 µm, maintained at 35 °C. The system was operated in positive mode. Mobile phases were: 100 mM Ammonium formate in water (mobile phase A) and 95:5:0.3 acetonitrile:water:formic acid (mobile phase B).

[10] = target: T1, LAT1 (Homo sapiens, UniProt Q01650); experiment: [3H]-L-leucine uptake inhibition in MDST8-LAT1 cells; type: cell-based; conditions: LAT1 transfected cells
T1 construct: expressed in transfected cells; host or cells: MDST8-LAT1 cells
Protocol: [3H]-L-Leucine uptake assay
[3H]-L-Leucine uptake assay was performed as previously described [Yan et al., 2021]. Cells were seeded in 96-well plates with opaque bottom (Corning, 353296) at 40-60% confluency, allowing them to attach for 48 hours in a fully supplemented media. Cells were preincubated with different concentrations of […]
Solution (HBSS) containing 125 mM choline-Cl, 25 mM HEPES, 4.8 mM KCl, 1.2 mM MgSO4, 1.2 mM KH2PO4, 1.3 mM CaCl2 and 5.6 mM D-glucose (pH 7.4) and further incubated with the same solution for 7 minutes at 37 °C. [3H]-l-Leucine uptake was assessed in the same solution containing 10 nM “hot” [3H]-L-Leucine (60 Ci/mmol) (Anawa, 0140A-1) + 30 μM “cold” L-leucine. In case of 5 μM JPH203, the same procedure was followed without PTX preincubation. After 3 minutes, the solution was removed, and the cells were washed with ice-cold Na+-free HBSS to terminate the uptake. Cells were lysed with scintillation solvent MicroScint-20 (Perkin-Elmer Life Sciences, 6013621) and the radioactivity was measured with a scintillation counter (TopCount NXT, Perkin-Elmer Life Sciences).
*Yan R, Li Y, Müller J, Zhang Y, Singer S, Xia L, Zhong X, Gertsch J, Altmann KH, Zhou Q. Mechanism of substrate transport and inhibition of the human LAT1-4F2hc amino acid transporter. Cell Discov.

T1 sequence (Q01650 whole entry): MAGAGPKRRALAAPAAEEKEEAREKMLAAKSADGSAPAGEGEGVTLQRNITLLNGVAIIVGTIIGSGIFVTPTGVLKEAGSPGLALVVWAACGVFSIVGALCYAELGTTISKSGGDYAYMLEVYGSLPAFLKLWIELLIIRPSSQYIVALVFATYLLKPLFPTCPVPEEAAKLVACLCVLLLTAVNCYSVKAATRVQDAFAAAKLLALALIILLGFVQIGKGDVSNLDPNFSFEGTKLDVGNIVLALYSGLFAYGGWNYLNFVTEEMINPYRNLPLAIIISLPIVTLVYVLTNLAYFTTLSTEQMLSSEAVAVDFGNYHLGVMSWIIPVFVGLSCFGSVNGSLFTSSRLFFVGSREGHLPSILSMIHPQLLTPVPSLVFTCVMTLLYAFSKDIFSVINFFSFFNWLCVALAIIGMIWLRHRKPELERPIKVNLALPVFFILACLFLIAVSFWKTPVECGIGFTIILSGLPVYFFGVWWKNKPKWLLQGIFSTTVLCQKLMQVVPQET
T1 sequence (P08195 102-630 partner): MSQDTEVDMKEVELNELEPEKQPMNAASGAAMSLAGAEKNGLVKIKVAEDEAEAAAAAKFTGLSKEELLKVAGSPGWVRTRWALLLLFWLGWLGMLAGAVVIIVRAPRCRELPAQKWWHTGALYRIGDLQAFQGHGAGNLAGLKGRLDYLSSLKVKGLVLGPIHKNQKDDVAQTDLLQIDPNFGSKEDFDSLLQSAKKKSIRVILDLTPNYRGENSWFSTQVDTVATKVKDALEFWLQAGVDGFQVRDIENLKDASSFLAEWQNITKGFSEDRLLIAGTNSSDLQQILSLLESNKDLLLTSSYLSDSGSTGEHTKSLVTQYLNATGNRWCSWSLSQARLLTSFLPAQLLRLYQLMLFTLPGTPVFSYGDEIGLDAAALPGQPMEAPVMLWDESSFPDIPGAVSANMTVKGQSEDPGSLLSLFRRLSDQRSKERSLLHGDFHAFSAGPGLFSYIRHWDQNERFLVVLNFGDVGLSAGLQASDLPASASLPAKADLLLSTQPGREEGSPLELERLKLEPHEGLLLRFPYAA

## COc1c(OC)c2occc2c2oc(=O)ccc12 [Pimpinellin, pimpinellin]
[1]
  decrease of normalized PSD: 81%

## CCCC(CCC)C(=O)O [VPA, valproic acid]
[2]
  solubility in aqueous solutions: 1200 µg/mL (≈ 8.32 mM)

## CCCC(CCC)C(=O)O [VPN, sodium valproate]
[3]; VPN 5 mM, 18 h
  locomotor activity without PTZ vs vehicle: significant inhibition of the locomotor activity
[4]
  oral bioavailability: ~ 90%
[5]; VPN/VPA 100 µM, 1 h immersion
  % Absorbed: ~ 6%
[5]; VPN/VPA 100 µM, 1 h immersion, listed as VPN/VPA
  % Absorbed: 6.5%
[5]; VPN/VPA 500 µM, 1 h immersion
  % Absorbed: 2.3%
[5]; VPN/VPA 1 mM, 1 h immersion
  % Absorbed: 3.3%
[5]; VPN/VPA 5 mM, 5 min immersion
  % Absorbed: 0.77%
[5]; VPN/VPA 5 mM, 5 min immersion, listed as VPN/VPA
  % Absorbed: 0.8%
[5]; VPN/VPA 5 mM, 30 min immersion
  % Absorbed: 1.44%
[5]; VPN/VPA 5 mM, 30 min immersion, listed as VPN/VPA
  % Absorbed: 1.4%
[5]; VPN/VPA 5 mM, 1 h immersion
  % Absorbed: 2.52%
[5]; VPN/VPA 5 mM, 1 h immersion, listed as VPN/VPA
  % Absorbed: 2.5%
[5]; VPN/VPA 5 mM, 18 h immersion (metabolism)
  % Absorbed: 0.76% (metabolism)
[5]; VPN/VPA 5 mM, without larvae
  % Absorbed: 100%
  Measured concentration: 734,333 ± 5859 ng/g and 5092 ± 40.6 µM
[5]; zebrafish (Danio rerio) larvae, whole-body larvae homogenate, other: immersion in compound-containing medium, 100 µM, Measured concentration in larvae whole-body, VPN/VPA 100 µM, 1 h immersion
  concentration at 1 h: 941 ng/g and 6.5 µM
[5]; zebrafish (Danio rerio) larvae, whole-body larvae homogenate, other: immersion in compound-containing medium, 500 µM, Measured concentration in larvae whole-body, VPN/VPA 500 µM, 1 h immersion
  concentration at 1 h: 1680 ng/g and 11.6 µM
[5]; zebrafish (Danio rerio) larvae, whole-body larvae homogenate, other: immersion in compound-containing medium, 1 mM, Measured concentration in larvae whole-body, VPN/VPA 1 mM, 1 h immersion
  concentration at 1 h: 4740 ng/g and 32.9 µM
[5]; zebrafish (Danio rerio) larvae, whole-body larvae homogenate, other: immersion in compound-containing medium, 5 mM, Measured concentration in larvae whole-body, VPN/VPA 5 mM, 5 min immersion
  concentration at 5 min: 5600 ng/g and 38.8 µM
[5]; zebrafish (Danio rerio) larvae, whole-body larvae homogenate, other: immersion in compound-containing medium, 5 mM, Measured concentration in larvae whole-body, VPN/VPA 5 mM, 30 min immersion
  concentration at 30 min: 10400 ng/g and 71.9 µM
[5]; zebrafish (Danio rerio) larvae, whole-body larvae homogenate, other: immersion in compound-containing medium, 5 mM, Measured concentration in larvae whole-body, VPN/VPA 5 mM, 1 h immersion
  concentration at 1 h: 18200 ng/g
[5]; zebrafish (Danio rerio) larvae, whole-body larvae homogenate, other: immersion in compound-containing medium, 5 mM, Measured concentration in larvae whole-body, VPN/VPA 5 mM, 18 h immersion
  concentration at 18 h: 5470 ng/g and 38 µM
[5]; zebrafish (Danio rerio) larvae, whole-body larvae homogenate, other: immersion in compound-containing medium, 5 mM, concentration in larvae whole-body, VPN 5 mM, 1 h
  concentration at 1 h: 18200 ± 400 ng/g
[5]; zebrafish (Danio rerio) larvae, whole-body larvae homogenate, other: immersion in compound-containing medium, 10 mM, Measured concentration in larvae whole-body, VPN/VPA 10 mM, 1 h immersion
  concentration at 1 h: 33900 ng/g and 235 µM
[6]
  therapeutic plasma concentration, total: 300 to 700 µM
  therapeutic plasma concentration, unbound: 30 to 100 µM
[7]; VPN 5 mM, 1 h
  efficacy against PTZ-induced seizure-like movements: ~ 80%
[7]; VPN 5 mM, 18 h immersion, p < 0.001
  activity of PTZ-treated larvae vs vehicle-PTZ group: decreased the activity

## pteryxin [PTX]
[3]; PTX 5 µM, 1 h
  average movements without PTZ vs vehicle: increased the average movements
[3]; PTX 20 µM, 1 h
  locomotor activity without PTZ vs vehicle: decreased locomotor activity
[3]; PTX 20 µM, 18 h
  locomotor activity without PTZ vs vehicle: significant inhibition of the locomotor activity
[8]
  decrease in the PSD values: 99.8%
[9]
  decrease of some AA levels vs control: up to 60%
[10]
  effect on the LAT1-mediated leucine transport: did not show any effect
[7]; PTX 10 µM
  decrease of actinteg values of PTZ-treated larvae: 37.6%
[7]; PTX 10 µM, 18 h immersion
  decrease of locomotor activity of PTZ-treated larvae: 61.4%
[7]; PTX 15 µM
  decrease of actinteg values of PTZ-treated larvae: 57.6%
[7]; PTX 15 µM, 18 h immersion
  decrease of locomotor activity of PTZ-treated larvae: 73.3%
[7]; PTX 20 µM
  decrease of actinteg values of PTZ-treated larvae: ~ 70% and 70.6%
[7]; PTX 20 µM, 18 h immersion
  decrease of locomotor activity of PTZ-treated larvae: 78.2%

Source: article PMC10252891 (Cells, 2023)
